Source: patent publication US8236523B2, “Camp reporters and high throughput assays” (The Johns Hopkins University, priority 2004, dated 2012)

How the values were obtained:
Format in all cases: cell-based
cAMP [1] = assay: Dual-emission ratio (FRET) imaging of Epac-based cAMP reporters (ICUE1 and targeted fusions) in HEK-293 cells; conditions: HEK293 cells expressing ICUE1, 10 μM ISO, 50 μM FSK
Procedure: Cell Culture. […] Cells were then transfected with FuGENE-6 transfection reagent (Roche) or calcium phosphate and allowed to grow for 12-24 hours before imaging.
Imaging. Cells were washed twice with Hanks' balanced salt solution buffer after 12- to 24-h incubation at 37° C. culture medium. Cells were maintained in buffer in the dark at room temperature with addition of isoproterenol (Aldrich), forskolin (Calbiochem), Prostaglandin E1 (PGE1) (Sigma), and 8-(4-chloro-phenylthio)-2′-O-methyl adenosine 3′,5′-monophosphate (8-pCPT-2′-O-Me-cAMP) (Axxora Biolog) as indicated. Cells were also treated with P-(4,5-dimethoxy-2-nitrobenzyl) adenosine 3′,5′-monophosphate (DMNB-cAMP) (Molecular Probe).
Cells were imaged on a Zeiss Axiovert 200M microscope with a cooled charge-coupled device camera MicroMAX BFT512 (Roper Scientific) controlled by METAFLUOR 6.2 software (Universal Imaging). Dual-emission ratio imaging used a 420DF20 excitation filter, a 450DRLP dichroic mirror and two emission filters (475DF40 for ECFP, 535DF25 for citrine) alternated by a filter changer Lambda 10-2 (Sutter Instruments). Exposure time was 100-500 ms and images were taken every 8-30 s. Fluorescent images were background-corrected by subtracting autofluorescence intensities of untransfected cells (or background with no cells) from the emission intensities of fluorescent cells expressing reporters. The ratios of cyan to yellow emissions were then calculated at different time points and normalized by dividing all ratios by the emission ratio just prior to stimulation therefore setting the basal emission ratio to 1.

cAMP [2] = assay: High throughput 96-well plate assay using ICUE2 stable HEK293 cells
Procedure: HEK293 cells which stably express ICUE2 (“ICUE2 stable HEK293 cells”) were grown to confluency in 10 cm dishes in DMEM, 10% FBS, 1% penicillin/streptomycin, and 250 μg/ml G418. HEK-293 cells were transfected with cDNA encoding ICUE2 using calcium phosphate at 40% confluency and allowed to grow for 40 hours. Cells were removed from the dish using 0.05% trypsin, spun down, and replaced with fresh media. ICUE2 stable HEK293 cells were counted on a hemocytometer using trypan blue stain. One hundred fifty thousand (150,000) cells were plated per well on a 96-well clear bottom assay plate in a total of 0.2 ml of media per […] and allowed to double once. Media was removed, cells were washed with Hanks buffered salt solution (HBSS) and then covered with 0.05 ml of HBSS per well. In a separate sterile plate, appropriate drugs were added to each well containing HBSS for a total volume of 0.05 ml. […] A baseline was established in three cycles, each consisting of a full plate reading of yellow intensity, followed by a reading of cyan intensity. Cells were then treated with isoproterenol (ISO; […] Readings were taken in six or twenty additional cycles. […] Baseline FRET ratios were calculated as the average ratio of yellow/cyan for each well before the addition of drug. FRET change was calculated as the percent increase of FRET ratio over baseline for each well during a given cycle. The FRET changes of all wells having undergone the same drug treatment were then averaged within each cycle, and that cycle was correlated with time.

cAMP [3] = assay: 96-well live cell plate reading of HEK293 cells expressing ICUE3; conditions: 1 μM ISO, 50 μM FSK
Procedure: Plate reading used a 420DF20 excitation filter and two emission filters (470DF40 for cyan and 535DF25 for yellow). A baseline was established in three cycles, each consisting of a full plate reading of yellow intensity, followed by a reading of cyan intensity. Cells were then treated with isoproterenol (ISO; Aldrich), forskolin (Calbiochem), H89, propranolol, and 3-isobutyl-1-methylxanthine (IBMX) as indicated. Readings were taken in six or twenty additional cycles. Each cycle lasted 60 to 145 sec. Baseline FRET ratios were calculated as the average ratio of yellow/cyan for each well before the addition of drug. FRET change was calculated as the percent increase of FRET ratio over baseline for each well during a given cycle. The FRET changes of all wells having undergone the same drug treatment were then averaged within each cycle, and that cycle was correlated with time.
Live cell plate reading. HEK293 cells were transfected with cDNA encoding ICUE reporters using calcium phosphate at 40% confluency and allowed to grow for 40 hours. Cells were then trypsinized and plated in a Costar 3603 96-well assay plate (Coming) at a density of 150,000 cells per well. After incubation for another 24 hours, cells were washed once with HBSS and left in 150 μl HBSS at 20-25° C. Fluorescence reading was taken on a FLUOstar OPTIMA fluorescence microplate reader (BMG Labtechnologies Inc.) using a 420DF20 excitation filter and two emission filters (470DF40 for cyan and […] for yellow). A baseline was established in three cycles, each consisting of a full plate reading of yellow intensity, followed by a reading of cyan intensity. Each cycle lasted between 64 and 145 seconds. Readings were taken in additional cycles. FRET change was calculated as the percent increase of emission ratios (cyan-to-yellow) over baseline for each well during a given cycle. To assess the efficacy of the assay, several statistical parameters were calculated, including Z factor, coefficient of variation, and signal-to-noise ratio (Zhang et al., J. Biomol. Screen. 4, 67-73, 1999).

**Q.** Which results are given for `CC(C)NCC(O)c1ccc(O)c(O)c1` (stereo not shown) [isoproterenol]?
**A.** time to plateau / maximal change in emission ratio (cAMP [1]; 10 μM PGE1): 1.5 to 3 min; increase in the ratio of cyan to yellow emissions (FRET response) (cAMP [1]; 10 μM PGE1, 300 μM 8-pCPT-2′-O-Me-cAMP, average ± S.E.M): 16.8%±1.0; character of ICUE2 response (in words) (cAMP [2]; 1 μM ISO, 100 μM IBMX, 50 μM FSK): transient responses; Average percent FRET response ± standard deviation, cycle 1 (cAMP [2]; cycle 1 (1 cycle = 60 seconds), 1 μM Iso, 50 μM Fsk, 10 μM H89, 100 μM IBMX): 8.22% ± 5.97%; Average percent FRET response ± standard deviation, cycle 2 (cAMP [2]; cycle 2 (1 cycle = 60 seconds), 1 μM Iso, 50 μM Fsk, 10 μM H89, 100 μM IBMX): 20.2% ± 1.69%; Average percent FRET response ± standard deviation, cycle 3 (cAMP [2]; cycle 3 (1 cycle = 60 seconds), 1 μM Iso, 50 μM Fsk, 10 μM H89, 100 μM IBMX): 21.59% ± 2.65%; Average percent FRET response ± standard deviation, cycle 4 (cAMP [2]; cycle 4 (1 cycle = 60 seconds), 1 μM Iso, 50 μM Fsk, 10 μM H89, 100 μM IBMX): 22.44% ± 2.42%; Average percent FRET response ± standard deviation, cycle 5 (cAMP [2]; cycle 5 (1 cycle = 60 seconds), 1 μM Iso, 50 μM Fsk, 10 μM H89, 100 μM IBMX): 21.47% ± 2.92%; Average percent FRET response ± standard deviation, cycle 6 (cAMP [2]; cycle 6 (1 cycle = 60 seconds), 1 μM Iso, 50 μM Fsk, 10 μM H89, 100 μM IBMX): 19.64% ± 1.73; Average percent FRET response ± standard deviation, cycle 7 (cAMP [2]; cycle 7 (1 cycle = 60 seconds), 1 μM Iso, 50 μM Fsk, 10 μM H89, 100 μM IBMX): 17.36% ± 1.28%; Average percent FRET response ± standard deviation, cycle 8 (cAMP [2]; cycle 8 (1 cycle = 60 seconds), 1 μM Iso, 50 μM Fsk, 10 μM H89, 100 μM IBMX): 15.93% ± 2.0%; Average percent FRET response ± standard deviation, cycle 9 (cAMP [2]; cycle 9 (1 cycle = 60 seconds), 1 μM Iso, 50 μM Fsk, 10 μM H89, 100 μM IBMX): 14.45% ± 3.55%; Average percent FRET response ± standard deviation, cycle 10 (cAMP [2]; cycle 10 (1 cycle = 60 seconds), 1 μM Iso, 50 μM Fsk, 10 μM H89, 100 μM IBMX): 11.07% ± 2.19%; Average percent FRET response ± standard deviation, cycle 11 (cAMP [2]; cycle 11 (1 cycle = 60 seconds), 1 μM Iso, 50 μM Fsk, 10 μM H89, 100 μM IBMX): 6.94% ± 1.93; Average percent FRET response ± standard deviation, cycle 12 (cAMP [2]; cycle 12 (1 cycle = 60 seconds), 1 μM Iso, 50 μM Fsk, 10 μM H89, 100 μM IBMX): 2.26% ± 5.45%; Average percent FRET response ± standard deviation, cycle 13 (cAMP [2]; cycle 13 (1 cycle = 60 seconds), 1 μM Iso, 50 μM Fsk, 10 μM H89, 100 μM IBMX): 2.47% ± 6.06%; Average percent FRET response ± standard deviation, cycle 14 (cAMP [2]; cycle 14 (1 cycle = 60 seconds), 1 μM Iso, 50 μM Fsk, 10 μM H89, 100 μM IBMX): 2.27% ± 3.37%; Average percent FRET response ± standard deviation, cycle 15 (cAMP [2]; cycle 15 (1 cycle = 60 seconds), 1 μM Iso, 50 μM Fsk, 10 μM H89, 100 μM IBMX): 1.80% ± 5.84%; Average percent FRET response ± standard deviation, cycle 16 (cAMP [2]; cycle 16 (1 cycle = 60 seconds), 1 μM Iso, 50 μM Fsk, 10 μM H89, 100 μM IBMX): 1.05% ± 5.87%; Average percent FRET response ± standard deviation, cycle 17 (cAMP [2]; cycle 17 (1 cycle = 60 seconds), 1 μM Iso, 50 μM Fsk, 10 μM H89, 100 μM IBMX): 1.29% ± 2.72%; Average percent FRET response ± standard deviation, cycle 18 (cAMP [2]; cycle 18 (1 cycle = 60 seconds), 1 μM Iso, 50 μM Fsk, 10 μM H89, 100 μM IBMX): 1.68% ± 6.12%; Average percent FRET response ± standard deviation, cycle 19 (cAMP [2]; cycle 19 (1 cycle = 60 seconds), 1 μM Iso, 50 μM Fsk, 10 μM H89, 100 μM IBMX): 2.52% ± 3.54%; Average percent FRET response ± standard deviation, cycle 20 (cAMP [2]; cycle 20 (1 cycle = 60 seconds), 1 μM Iso, 50 μM Fsk, 10 μM H89, 100 μM IBMX): 0.93% ± 4.45%; character of ICUE3 response (in words) (cAMP [3]): transient responses; maximal response / emission ratio change (cAMP [3]; HEK293 cells expressing ICUE3, n=7): 8.10%±1.4%
